Holding throughout (assay type): biochemical
In experiment [1] the target is full-length SHP2-E76K oncogenic mutant (Homo sapiens (Human), UniProt Q06124, E76K). Nature of the experiment: DiFMUP fluorescence intensity phosphatase inhibition assay, SHP2-E76K. The settings on record: DiFMUP at Km (20 μM), 10-point dose-response; read-out: SHP2-E76K IC50. The text has this:
(§1) To test the synthesized compounds for their potential to inhibit SHP2 activity, a fluorescence intensity-based assay using 6,8-difluoro-4-methylumbelliferyl phosphate (DiFMUP) as the substrate was adapted for three recombinant SHP2 constructs: 1) the SHP2 catalytic domain (SHP2cat; residues 248-527), 2) the full-length SHP2-E76K oncogenic mutant, and 3) the full-length SHP2 wild-type (SHP2-WT). The recombinant SHP2 proteins were expressed and purified. A dually phosphorylated peptide derived from the insulin receptor substrate 1 (IRS-1) served as a surrogate binding protein and was used to activate SHP2-WT. […] Michaelis-Menten experiments to determine the DiFMUP Michaelis-Menten constant (Kmn) for each SHP2 construct were performed and yielded the following values: SHP2-WT, Km=60 μM; SHP2-E76K, Km=20 μM; SHP2cat, Km=20 μM. Relative maximum rates (Vmax) of the DiFMUP reactions were as follows: SHP2-WT, Vmax=871 AFU/min; SHP2-E76K, Vmax, =2730 AFU/min; SHP2cat, Vmax=2912 AFU/min. IC50 values for each compound were determined from initial rates in 10-point dose-response assays using DiFMUP at a concentration corresponding to its Km value for the respective SHP2 construct.
(§2) SHP2 inhibitors were tested at room temperature (RT) in a 384-well plate format standard phosphatase fluorescence intensity assay using DiFMUP (Invitrogen/Thermo Fisher Scientific, Carlsbad, CA) as a substrate and a total reaction volume of 25 μL. SHP2 inhibitors or vehicle (DMSO) were spotted in triplicate into a black Greiner FLUOTRAC™ 200 384-well microplate (#781076, Greiner) for a 10-point dose-response assay using an Echo®555 Liquid Handler (Labcyte, Inc., San Jose, CA). PTP working solutions were prepared at a 0.625 nM concentration (for a final concentration of 0.5 nM) in buffer containing 50 mM Bis-Tris pH 6.0, 50 mM NaCl, 5 mM DTT, and 0.01% Tween® 20. Prior to the assay, a dually phosphorylated insulin receptor substrate 1 (IRS-1) peptide [625 nM (500 nMfinal) (30)] was added to full-length WT SHP2 working solutions and incubated for 20 min. DiFMUP working solutions at 5× final concentration were prepared in 50 mM Bis-Tris pH 6.0, 50 mMNaCl, and 0.01% Tween 20. 20 μL of PTP working solution was dispensed into the microplate and incubated with inhibitor for 20 min at RT. […] The reaction was initiated by addition of 5 μL DiFMUP working solutions. Fluorescence intensity was measured in kinetic mode (every minute for 7 or 10 min) using a Tecan Spark® Multimode Microplate Reader (Tecan, Groedig, Austria) with an excitation wavelength of 360 nm and an emission wavelength of 460 nm. The initial rates were determined from the linear progression curves of the PTP reaction. The nonenzymatic hydrolysis of the substrate was corrected by using a control without addition of enzyme. IC50 values were calculated from the corrected initial rates by nonlinear regression using the program GraphPad Prism (GraphPad Software, Inc., San Diego, CA) Version 8. Dose-response inhibition assays of SHP2cat using the substrate OMFP were performed similarly as described above for DiFMUP. OMFP was used at a concentration corresponding to its Km value for SHP2cat (50 μM final). Fluorescence intensity was measured in kinetic mode (every minute for 10 min) using a Tecan Spark Multimode Microplate Reader with an excitation wavelength of 485 nm and an emission wavelength of 535 nm. Initial rates were determined and IC50 vales calculated as described above.

In experiment [2] the target is full-length SHP2 wild-type (SHP2-WT) (Homo sapiens (Human), UniProt Q06124). The experiment is described as follows: DiFMUP fluorescence intensity phosphatase inhibition assay, SHP2-WT activated with IRS-1 peptide. The settings on record: DiFMUP at Km (60 μM), IRS-1 peptide activated.
Text: as §1, §2

In experiment [3] the target is SHP2 catalytic domain (SHP2cat; residues 248-527) (Homo sapiens (Human), UniProt Q06124). The experiment is described as follows: DiFMUP fluorescence intensity phosphatase inhibition assay, SHP2cat. Conditions: DiFMUP at Km (20 μM); read-out: SHP2cat IC50.
Text: as §1, §2

Molecules are shown by their SMILES.

Chain of full-length SHP2-E76K oncogenic mutant (Q06124 whole entry E76K, the tested form may be a part): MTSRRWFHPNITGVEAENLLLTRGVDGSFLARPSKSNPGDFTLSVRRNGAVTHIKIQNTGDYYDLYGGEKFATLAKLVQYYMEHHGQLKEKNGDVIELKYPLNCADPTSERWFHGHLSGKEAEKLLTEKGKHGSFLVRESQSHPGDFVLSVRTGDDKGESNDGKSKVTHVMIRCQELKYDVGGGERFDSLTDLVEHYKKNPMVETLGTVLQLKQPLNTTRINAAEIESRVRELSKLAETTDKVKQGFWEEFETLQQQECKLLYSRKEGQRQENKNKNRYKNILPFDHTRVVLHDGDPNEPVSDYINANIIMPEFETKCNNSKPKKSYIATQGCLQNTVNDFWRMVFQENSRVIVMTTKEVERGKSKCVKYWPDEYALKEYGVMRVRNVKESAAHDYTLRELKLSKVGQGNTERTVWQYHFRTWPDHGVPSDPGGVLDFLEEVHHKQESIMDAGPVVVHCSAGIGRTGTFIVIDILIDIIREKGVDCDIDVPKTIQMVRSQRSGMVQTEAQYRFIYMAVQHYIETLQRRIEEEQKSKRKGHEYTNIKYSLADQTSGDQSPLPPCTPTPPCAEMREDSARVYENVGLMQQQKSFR
Chain of SHP2 catalytic domain (SHP2cat; residues 248-527) (Q06124 248-527): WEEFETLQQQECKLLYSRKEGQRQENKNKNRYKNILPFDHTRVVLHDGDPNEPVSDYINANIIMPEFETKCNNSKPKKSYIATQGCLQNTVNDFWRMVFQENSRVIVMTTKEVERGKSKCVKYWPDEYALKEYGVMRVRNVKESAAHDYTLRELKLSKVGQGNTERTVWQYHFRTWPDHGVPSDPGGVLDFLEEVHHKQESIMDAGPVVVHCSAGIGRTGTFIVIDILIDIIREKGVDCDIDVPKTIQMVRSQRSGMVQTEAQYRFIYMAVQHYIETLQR
Chain of full-length SHP2 wild-type (SHP2-WT) (Q06124 whole entry, other chains not shown): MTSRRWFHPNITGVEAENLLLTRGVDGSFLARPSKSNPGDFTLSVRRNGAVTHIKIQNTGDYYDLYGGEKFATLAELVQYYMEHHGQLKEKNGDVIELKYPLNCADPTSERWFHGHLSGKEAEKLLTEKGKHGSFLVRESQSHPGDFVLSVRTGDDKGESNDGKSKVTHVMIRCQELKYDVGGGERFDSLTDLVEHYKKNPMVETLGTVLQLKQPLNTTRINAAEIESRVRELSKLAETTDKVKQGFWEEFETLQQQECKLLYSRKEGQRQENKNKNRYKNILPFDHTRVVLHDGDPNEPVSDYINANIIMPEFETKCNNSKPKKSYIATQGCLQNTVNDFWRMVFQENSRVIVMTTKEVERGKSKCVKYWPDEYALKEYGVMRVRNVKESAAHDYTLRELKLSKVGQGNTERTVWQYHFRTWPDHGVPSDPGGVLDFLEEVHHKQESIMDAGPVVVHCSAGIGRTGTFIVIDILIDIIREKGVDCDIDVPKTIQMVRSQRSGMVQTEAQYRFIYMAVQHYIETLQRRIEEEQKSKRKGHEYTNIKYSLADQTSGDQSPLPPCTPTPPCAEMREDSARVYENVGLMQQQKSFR

Turning to `O=C1/C(=C/c2ccc(-c3ccc(O)c(-c4nn[nH]n4)c3)o2)Sc2ccccc21` [#04, (Z)-2-((5-(4-Hydroxy-3-(2H-tetrazol-5-yl)phenyl)furan-2-yl)methylene)benzo[b]thiophen-3(2H)-one], the IC50 in experiment [1], in experiment [2] and in experiment [3] was 1 to 20 µM throughout.
Regarding `O=C1CCC/C1=C\c1ccc(-c2ccc(O)c(C(=O)O)c2)o1` [#06, 2-Hydroxy-5-(5-((2-oxocyclopentylidene)methyl)furan-2-yl)benzoic acid], the 50% inhibitory concentration (IC50) (in general, the midpoint of a concentration-inhibition curve) was in the range of 1 to 20 µM in experiment [1], 20 to 100 µM in experiment [2] and 1 to 20 µM in experiment [3].
On to `O=C(O)c1cc(-c2ccc(/C=C3\Oc4ccccc4C3=O)o2)ccc1O` [#07, (Z)-2-Hydroxy-5-(5-((3-oxobenzofuran-2(3H)-ylidene)methyl)furan-2-yl)benzoic acid], for which the IC50 in experiment [1], in experiment [2] and in experiment [3] was 1 to 20 µM each time.
On to `CC(C)NC(=O)c1cc(-c2ccc(/C=C3\Sc4ccccc4C3=O)o2)ccc1O` [#13, (Z)-2-Hydroxy-N-isopropyl-5-(5-((3-oxobenzo[b]thiophen-2(3H)-ylidene)methyl)furan-2-yl)benzamide], for which the IC50 in experiment [1] lay within 1 to 20 µM; in experiment [2], 20 to 100 µM.
In the same order, the values of `O=C1CCCC/C1=C\c1ccc(-c2ccc(O)c(C(=O)O)c2)o1` [#14, 2-Hydroxy-5-(5-((2-oxocyclohexylidene)methyl)furan-2-yl)benzoic acid] are 20 to 100 µM and 20 to 100 µM.
On to `O=C(Nc1ccccc1)c1cccc(-c2ccc(/C=C3\Sc4ccccc4C3=O)o2)c1` [#15, (Z)-3-(5-((3-Oxobenzo[b]thiophen-2(3H)-ylidene)methyl)furan-2-yl)-N-phenylbenzamide], for which the half-inhibitory concentration (IC50) in experiment [1] and in experiment [2] was 20 to 100 µM in each case.
With `O=C(NCc1ccccc1)c1cccc(-c2ccc(/C=C3\Sc4ccccc4C3=O)o2)c1` [#16, (Z)—N-Benzyl-3-(5-((3-oxobenzo[b]thiophen-2(3H)-ylidene)methyl)furan-2-yl)benzamide], the concentration for half-maximal inhibition (IC50) is 20 to 100 µM in experiment [1] and at least 100 µM in experiment [2].
On the same counts, the results for `O=C1/C(=C/c2ccc(-c3ccc(O)cc3)o2)Sc2ccccc21` [#17, (Z)-2-((5-(4-Hydroxyphenyl)furan-2-yl)methylene)benzo[b]thiophen-3(2H)-one] are 20 to 100 µM and at least 100 µM.
On the same counts, the results for `COc1ccc(-c2ccc(/C=C3\Sc4ccccc4C3=O)o2)cc1C(=O)Nc1ccccc1` [#18, (Z)-2-Methoxy-5-(5-((3-oxobenzo[b]thiophen-2(3H)-ylidene)methyl)furan-2-yl)-N-phenylbenzamide] are 20 to 100 µM and 20 to 100 µM.
For `O=C1/C(=C/c2ccc(-c3ccc(O)c(C(=O)N4CCNCC4)c3)o2)Sc2ccccc21` [#19, (Z)-2-((5-(4-Hydroxy-3-(piperazine-1-carbonyl)phenyl)furan-2-yl)methylene)benzo[b]thiophen-3(2H)-one], the results for the IC50 in experiment [1] and in experiment [2] were 20 to 100 µM and at least 100 µM, respectively.
On the same counts, the results for `O=C(Nc1ccccc1)c1cc(-c2ccco2)ccc1O` [#21, 5-(Furan-2-yl)-2-hydroxy-N-phenylbenzamide] are at least 100 µM and at least 100 µM.
In the same order, the values of `O=C(NCCO)c1cc(-c2ccc(/C=C3\Sc4ccccc4C3=O)o2)ccc1O` [#22, (Z)-2-Hydroxy-N-(2-hydroxyethyl)-5-(5-((3-oxobenzo[b]thiophen-2(3H)-ylidene)methyl)furan-2-yl)benzamide] are at least 100 µM and at least 100 µM.
In the case of `CN1CCN(C(=O)c2cc(-c3ccc(/C=C4\Sc5ccccc5C4=O)o3)ccc2O)CC1` [#23, (Z)-2-((5-(4-Hydroxy-3-(4-methylpiperazine-1-carbonyl)phenyl)furan-2-yl)methylene)benzo[b]thiophen-3(2H)-one], the IC50 in experiment [1] and in experiment [2] was at least 100 µM in each case.
For `O=C(Nc1ccccc1)c1cc(-c2ccc(/C=C3\Sc4ccccc4C3=O)o2)ccc1F` [#24, (Z)-2-Fluoro-5-(5-((3-oxobenzo[b]thiophen-2(3H)-ylidene)methyl)furan-2-yl)-N-phenylbenzamide], the IC50 in experiment [1] and in experiment [2] was at least 100 µM each time.
Turning to `O=C1/C(=C/c2ccc(-c3ccccc3)o2)Sc2ccccc21` [#25, (Z)-2-((5-phenylfuran-2-yl)methylene)benzo[b]thiophen-3(2H)-one], the IC50 in experiment [1] and in experiment [2] was at least 100 µM in each case.
In the case of `CC(C)NC(=O)c1cc(-c2ccc(/C=C3\Oc4ccccc4C3=O)o2)ccc1O` [#26], the IC50 in experiment [1] and in experiment [2] was 1 to 20 µM each time.
Regarding `C/C=C1\CC/C(=C\c2ccc(-c3ccc(O)c(C(=O)O)c3)o2)C1=O` [#27], the IC50 in experiment [1] and in experiment [2] was 1 to 20 µM in each case.
Take `O=C(O)c1ccc(-c2ccc(/C=C3\Sc4ccccc4C3=O)o2)cc1` [#28]: the IC50 in experiment [1] and in experiment [2] was 1 to 20 µM each time.
Turning to `O=C(Nc1ccccc1)c1cc(F)cc(-c2ccc(/C=C3\Sc4ccccc4C3=O)o2)c1` [#29], the figures for the IC50 in experiment [1] and in experiment [2] were 1 to 20 µM and 20 to 100 µM, respectively.
`O=C(O)c1cccc(-c2cccc(/C=C3\Sc4ccccc4C3=O)c2)c1` [#30]: the IC50 in experiment [1] and in experiment [2] was 1 to 20 µM each time.
With `O=C(O)c1cccc(-c2ccc(/C=C3\Sc4ccccc4C3=O)o2)c1` [#31], the IC50 in experiment [1] and in experiment [2] was 1 to 20 µM each time.
On to `O=C(O)c1cc(-c2ccc(/C=C3\Sc4ccccc4C3=O)o2)ccc1F` [#32], for which the values for the half-maximal inhibitory concentration (IC50) in experiment [1] and in experiment [2] were 1 to 20 µM and 20 to 100 µM, respectively.
On the same counts, the results for `COc1cccc(NC(=O)c2cccc(-c3ccc(/C=C4\Sc5ccccc5C4=O)o3)c2)c1` [#33] are 1 to 20 µM and 20 to 100 µM.
On the same counts, the results for `O=C(O)c1cccc(-c2ccc(/C=C3\Cc4ccccc4C3=O)o2)c1` [#34] are 1 to 20 µM and 20 to 100 µM.
On the same counts, the results for `COc1ccc(-c2ccc(/C=C3\Sc4ccccc4C3=O)o2)cc1C(=O)O` [#35] are 1 to 20 µM and 20 to 100 µM.
As for `O=C1CCC/C1=C\c1ccc(-c2cccc(C(=O)O)c2)o1` [#36], the IC50 in experiment [1] and in experiment [2] was 20 to 100 µM each time.
Consider `O=C(/C=C/c1ccc(-c2ccc(O)c(C(=O)O)c2)o1)c1ccccc1` [#37], for which the half-maximal inhibitory concentration (IC50) in experiment [1] and in experiment [2] was 20 to 100 µM in each case.
As to `O=C(Nc1ccc2ccccc2n1)c1cccc(-c2ccc(/C=C3\Sc4ccccc4C3=O)o2)c1` [#38], the IC50 in experiment [1] is 20 to 100 µM; in experiment [2], at least 100 µM.
In the same order, the values of `O=C1NC(=O)/C(=C/c2ccc(-c3cccc(C(=O)Nc4ccccc4)c3)o2)S1` [#39] are 20 to 100 µM and 20 to 100 µM.
In the same order, the values of `O=C1/C(=C/c2ccc(-c3ccc(O)c(C(=O)O)c3)o2)CC/C1=C\c1ccc(-c2ccc(O)c(C(=O)O)c2)o1` [#44] are at most 1 µM and 1 to 20 µM.
In the same order, the values of `O=C1/C(=C/c2ccc(O)c(C(=O)O)c2)CC/C1=C\c1ccc(O)c(C(=O)O)c1` [#47] are 1 to 20 µM and 1 to 20 µM.
Consider `O=C(/C=C/c1ccc(Br)o1)c1cccc(C(=O)/C=C/c2ccc(Br)o2)c1` [#48], for which the IC50 in experiment [1] and in experiment [2] was 20 to 100 µM in each case.

The values above are taken from US20250026741A1, “INHIBITORS OF THE ONCOGENIC SHP2 PHOSPHATASE AND USES THEREOF” (Sanford Burnham Prebys Medical Discovery Institute, priority 2021, published 2025).
